Data from ChEMBL document CHEMBL3885881, “DrugMatrix”.

Organism: Rattus norvegicus
Experiment: DrugMatrix - Regimen: Daily Repeat
Type: toxicity, organism-based, Sprague-Dawley
Design: regimen Daily Repeat, gender Male, age 6-8 weeks
Conditions: in vivo, po, route oral GAVAGE, vehicle 100 % WATER; for ABSOLUTE BASOPHIL / ABSOLUTE EOSINOPHIL / ABSOLUTE LYMPHOCYTE / ABSOLUTE MONOCYTE / ABSOLUTE SEGMENTED NEUTROPHIL / BASOPHIL / EOSINOPHIL / ERYTHROCYTE COUNT / HEMATOCRIT / HEMOGLOBIN / LEUKOCYTE COUNT / LYMPHOCYTE / MEAN CORPUSCULAR HEMOGLOBIN / MEAN CORPUSCULAR HEMOGLOBIN CONCENTRATION / MEAN CORPUSCULAR VOLUME / MONOCYTE / NEUTROPHIL / NUCLEATED RED BLOOD CELLS / PLATELET COUNT: tissue Blood; for ALANINE AMINOTRANSFERASE / ALBUMIN / ALKALINE PHOSPHATASE / ASPARTATE AMINOTRANSFERASE / BLOOD UREA NITROGEN / CARBON DIOXIDE / CHLORIDE / CHOLESTEROL / CREATINE PHOSPHOKINASE / CREATININE / GLUCOSE / LACTATE DEHYDROGENASE / LIPASE / PHOSPHORUS / POTASSIUM / SODIUM / TOTAL BILIRUBIN / TOTAL PROTEIN / URIC ACID: tissue Plasma
[1] = 0 mg/kg, 72 h, dose level Control, time 3 day
[2] = 0 mg/kg, 120 h, dose level Control, time 5 day
[3] = 300 mg/kg, 72 h, dose level Low, time 3 day

CC(Cl)(Cl)Cl [TRICHLOROETHANE]
ABSOLUTE BASOPHIL [1]: 0 CELLS/uL | ABSOLUTE EOSINOPHIL [1]: 86.33 CELLS/uL | ABSOLUTE LYMPHOCYTE [1]: 12090.17 CELLS/uL | ABSOLUTE MONOCYTE [1]: 166.67 CELLS/uL | ABSOLUTE SEGMENTED NEUTROPHIL [1]: 1090.17 CELLS/uL | BASOPHIL [1]: 0% | EOSINOPHIL [1]: 0.67% | ERYTHROCYTE COUNT [1]: 5.57 x10E6/uL | HEMATOCRIT [1]: 35.33% | HEMOGLOBIN [1]: 13.83 G/DL | LEUKOCYTE COUNT [1]: 13.43 x10E3/uL | LYMPHOCYTE [1]: 89.83% | MEAN CORPUSCULAR HEMOGLOBIN [1]: 24.88 pg | MEAN CORPUSCULAR HEMOGLOBIN CONCENTRATION [1]: 39.15 G/DL | MEAN CORPUSCULAR VOLUME [1]: 63.52 fL | MONOCYTE [1]: 1.17% | NEUTROPHIL [1]: 8.33% | NUCLEATED RED BLOOD CELLS [1]: 0 /100WBC | PLATELET COUNT [1]: 1181.33 x10E3/uL | ALANINE AMINOTRANSFERASE [1]: 48.33 u/L | ALBUMIN [1]: 4.1 G/DL | ALKALINE PHOSPHATASE [1]: 395 u/L | ASPARTATE AMINOTRANSFERASE [1]: 81.83 u/L | BLOOD UREA NITROGEN [1]: 15.83 mg/dL | CARBON DIOXIDE [1]: 24.17 mmol/L | CHLORIDE [1]: 103.83 MEQ/L | CHOLESTEROL [1]: 63.67 mg/dL | CREATINE PHOSPHOKINASE [1]: 372.83 u/L | CREATININE [1]: 0.18 mg/dL | GLUCOSE [1]: 173.83 mg/dL | LACTATE DEHYDROGENASE [1]: 188.33 u/L | LIPASE [1]: 9.5 u/L | PHOSPHORUS [1]: 11.95 mg/dL | POTASSIUM [1]: 5.99 MEQ/L | SODIUM [1]: 144.43 MEQ/L | TOTAL BILIRUBIN [1]: 0.15 mg/dL | TOTAL PROTEIN [1]: 5.95 G/DL | URIC ACID [1]: 1.82 mg/dL | ABSOLUTE BASOPHIL [2]: 0 CELLS/uL | ABSOLUTE EOSINOPHIL [2]: 26.67 CELLS/uL | ABSOLUTE LYMPHOCYTE [2]: 7583.83 CELLS/uL | ABSOLUTE MONOCYTE [2]: 131.33 CELLS/uL | ABSOLUTE SEGMENTED NEUTROPHIL [2]: 674.83 CELLS/uL | BASOPHIL [2]: 0% | EOSINOPHIL [2]: 0.33% | ERYTHROCYTE COUNT [2]: 5.78 x10E6/uL | HEMATOCRIT [2]: 36.48% | HEMOGLOBIN [2]: 14.03 G/DL | LEUKOCYTE COUNT [2]: 8.42 x10E3/uL | LYMPHOCYTE [2]: 89.83% | MEAN CORPUSCULAR HEMOGLOBIN [2]: 24.3 pg | MEAN CORPUSCULAR HEMOGLOBIN CONCENTRATION [2]: 38.52 G/DL | MEAN CORPUSCULAR VOLUME [2]: 63.15 fL | MONOCYTE [2]: 1.67% | NEUTROPHIL [2]: 8.17% | NUCLEATED RED BLOOD CELLS [2]: 0 /100WBC | PLATELET COUNT [2]: 1186.67 x10E3/uL | ALANINE AMINOTRANSFERASE [2]: 50.17 u/L | ALBUMIN [2]: 4.07 G/DL | ALKALINE PHOSPHATASE [2]: 367.5 u/L | ASPARTATE AMINOTRANSFERASE [2]: 81.67 u/L | BLOOD UREA NITROGEN [2]: 16.17 mg/dL | CARBON DIOXIDE [2]: 32.33 mmol/L | CHLORIDE [2]: 101.5 MEQ/L | CHOLESTEROL [2]: 65.33 mg/dL | CREATINE PHOSPHOKINASE [2]: 255.33 u/L | CREATININE [2]: 0.17 mg/dL | GLUCOSE [2]: 139.33 mg/dL | LACTATE DEHYDROGENASE [2]: 95 u/L | LIPASE [2]: 10.5 u/L | PHOSPHORUS [2]: 10.38 mg/dL | POTASSIUM [2]: 6.11 MEQ/L | SODIUM [2]: 145.55 MEQ/L | TOTAL BILIRUBIN [2]: 0.17 mg/dL | TOTAL PROTEIN [2]: 5.98 G/DL | URIC ACID [2]: 0.93 mg/dL | ABSOLUTE BASOPHIL [3]: 0 CELLS/uL | ABSOLUTE EOSINOPHIL [3]: 37 CELLS/uL | ABSOLUTE LYMPHOCYTE [3]: 13276 CELLS/uL | ABSOLUTE MONOCYTE [3]: 236.33 CELLS/uL | ABSOLUTE SEGMENTED NEUTROPHIL [3]: 1084 CELLS/uL | BASOPHIL [3]: 0% | EOSINOPHIL [3]: 0.33% | ERYTHROCYTE COUNT [3]: 5.75 x10E6/uL | HEMATOCRIT [3]: 37.23% | HEMOGLOBIN [3]: 14.1 G/DL | LEUKOCYTE COUNT [3]: 14.63 x10E3/uL | LYMPHOCYTE [3]: 90.67% | MEAN CORPUSCULAR HEMOGLOBIN [3]: 24.53 pg | MEAN CORPUSCULAR HEMOGLOBIN CONCENTRATION [3]: 37.87 G/DL | MEAN CORPUSCULAR VOLUME [3]: 64.8 fL | MONOCYTE [3]: 1.67% | NEUTROPHIL [3]: 7.33% | NUCLEATED RED BLOOD CELLS [3]: 0 /100WBC | PLATELET COUNT [3]: 1274 x10E3/uL | ALANINE AMINOTRANSFERASE [3]: 52 u/L | ALBUMIN [3]: 4 G/DL | ALKALINE PHOSPHATASE [3]: 352.67 u/L | ASPARTATE AMINOTRANSFERASE [3]: 88.67 u/L | BLOOD UREA NITROGEN [3]: 16 mg/dL | CARBON DIOXIDE [3]: 24.67 mmol/L | CHLORIDE [3]: 102.33 MEQ/L | CHOLESTEROL [3]: 72 mg/dL | CREATINE PHOSPHOKINASE [3]: 1076 u/L | CREATININE [3]: 0.13 mg/dL | GLUCOSE [3]: 161 mg/dL | LACTATE DEHYDROGENASE [3]: 188.67 u/L | LIPASE [3]: 9 u/L | PHOSPHORUS [3]: 13.77 mg/dL | POTASSIUM [3]: 6.88 MEQ/L | SODIUM [3]: 144.3 MEQ/L | TOTAL BILIRUBIN [3]: 0.2 mg/dL | TOTAL PROTEIN [3]: 5.83 G/DL | URIC ACID [3]: 1.93 mg/dL
